Assay results: patent publication US12201599B2, “Compositions and methods for inhibiting blood cancer cell growth” (University of New Brunswick, priority 2017, dated 2025)

Assays:
Cyclin D3 = test: Immunoblot of cyclin D3 protein levels in KMM1 cells; format: cell-based, human; conditions: 48 hours; for effect on cyclin D3 levels: KMM1, 1, 5 and 25 μM; for cyclin D3 protein levels in comparison with CAPE: KMM1, 25 μM
KMM1 myeloma cells = test: KMM1 myeloma cell growth inhibition, PrestoBlue cell viability assay, 48 hours; format: cell-based, human
Experimental: Human myeloma cell line KMM1 was purchased from the Japanese Collection of Research Bioresources Cell Bank (JCBR, Japan). KMS-11 cells were a kind gift from Dr. David Hoskin's Laboratory, […], Canada. Myeloma cells were grown in RPMI-1640 media (Sigma Aldrich, USA) supplemented with 5% heat inactivated FBS (Gibco), […] L-glutamine (Gibco), 5 mM HEPES and 1% Penstrep (Sigma Aldrich, USA) in a 5% CO2 incubator at 37° C. Cell lines were tested regularly for mycoplasma and kept free of contamination. All other chemicals were obtained from Sigma Aldrich, USA. Myeloma cells were seeded in 96 well plates at a density of 10^4 cells/well in appropriate cell media. Following overnight incubation at 37° C., MM cells were treated for 48 hours with varying concentrations of CAPE and its closely related analogues and cell viability was determined by PrestoBlue assay (Invitrogen, ON) according to the manufacturer's protocol. […] Myeloma cell growth inhibition was determined by presto blue cell viability assay (FIG. 2). […] At 5 μM, GL8 inhibited 49.9±2.9%, while CAPE inhibited the growth of 7.3±1% myeloma cells only (P=0.000017); At 10 μM, GL8 inhibited 62.3±2%, while CAPE inhibited the growth of 25.6±5% (P=0.00026).

[1] = system: OCI-Ly3 human lymphoma cell line; test: Lymphoma cell growth inhibition in lenalidomide-insensitive OCI-Ly3; format: cell-based
OCT2 = test: Immunoblot of OCT2 protein levels in KMM1 cells; format: cell-based, human; conditions: KMM1, 25 μM, 48 hours
Bob-1 = test: Immunoblot of Bob-1 protein levels in KMM1 cells; format: cell-based, human; conditions: KMM1, 25 μM, 48 hours
[2] = system: normal human bone marrow mononuclear cells; test: Cell viability of normal mononuclear cells after 48 hr, Prestoblue cell viability assay; format: cell-based; conditions: for Normal Bone Marrow Mononuclear Cell Viability (%) Average: 48 hr; for inhibition of cell growth of normal human bone marrow cells (in words): 1, 10, 25, 50 μM, 48 hrs
Text: Cell Viability of Normal Mononuclear Cells after 48 hr CAPE and GL8 Treatment, Determined by Prestoblue Cell Viability Assay.

IRF4 [3] = test: Immunoblot of IRF4 protein expression in KMM1 cells
Text: (§1) Total protein extract was obtained from KMM1 and KMS-11 cells treated with CAPE and its closely related analogues and concentration of proteins determined by the Bicinchoninic acid assay (BCA) method. Protein samples were then fractionated by sodium dodecyl sulfate polyacrylamide gel electrophoresis (SDS PAGE) and transferred electrophoretically to a polyvinylidene (PVDF) membrane. Blots were then blocked with 5% nonfat dry milk in tris(hydroxymethyl)aminomethane-buffered saline-tween (TBS-T) for 1 hour and then incubated overnight with goat polyclonal anti-IRF4 antibody; rabbit polyclonal anti-OCT2 antibody, rabbit polyclonal anti-Bob1 antibody (Santa Cruz Biotechnology, Santa Cruz, CA); mouse polyclonal anti-Cyclin D3 (Cell Signaling Technology, Whitby, ON) and mouse monoclonal anti-beta tubulin antibody (Abcam, Cambridge, MA). Detection of protein in PVDF membrane was performed using the chemiluminescence kit (Bio-Rad Laboratories, Hercules, CA).
KMM1 cells were treated with 1, 5 and 25 μM of CAPE and its closely related analogues for 48 hours, cells were then harvested and proteins were extracted. 15 μg protein lysates were separated on a 4-20% gradient gel and then transferred to the PVDF membrane. The membrane was probed for IRF4 protein expression using affinity purified goat polyclonal antibody. Beta-actin was used as protein loading control.

[4] = system: KMM1 lenalidomide non-responsive myeloma cell line; test: Combination treatment of lenalidomide and CAPE analogues, KMM1 cell viability after 72 hr; conditions: Homo sapiens
cleaved caspase-3 = test: Immunoblot of cleaved caspase-3 in KMM1 cells; format: cell-based, human; conditions: KMM1, 25 μM, 48 hr
Experimental: Furthermore, a noticeable increase in cleaved caspase levels in KMM1 cells treated with 25 μM GL8 and MT30 was observed. In comparison with 25 μM CAPE, a 3.2 fold increase in cleaved caspase-3 by MT30 and a 2.9 fold increase by 25 μM of GL8 were observed (FIG. 5).

Ikaros [5] = test: Immunoblot of cereblon pathway protein Ikaros in KMM1 cells; format: cell-based, human; conditions: KMM1 (lenalidomide resistant)
Text: as §1

IRF4 [6] = test: Immunoblot of IRF4 in lenalidomide-responsive KMS-11 cells; format: cell-based, human; conditions: KMS-11 (lenalidomide responsive)
Text: as §1

Ikaros [7] = test: Immunoblot of Ikaros in lenalidomide-responsive KMS-11 cells; format: cell-based, human; conditions: KMS-11, 50 μM
Text: as §1

[8] = system: MMIR human myeloma cell line; test: Cell growth inhibition effect of lenalidomide on MMIR myeloma cells; format: cell-based
[9] = system: MM1S human myeloma cell line; test: Cell growth inhibition effect of lenalidomide on MM1S myeloma cells; format: cell-based
[10] = KMM-1, read-out: % KMM1 Cell viability, single compound treatment
[11] = KMM-1, 72 h, read-out: % KMM1 Cell viability after 72 hr Lenalidomide Treatment

O=C(O)/C=C/c1ccc(O)c(O)c1 [CA, Caffeic acid]
effect on cyclin D3 levels (Cyclin D3): did not have any effect

O=C(/C=C/c1ccc(O)c(O)c1)OCCc1ccccc1 [CAPE, Caffeic acid (3,4-dihydroxycinnamic acid) phenethyl ester]
inhibition at 1 µM (KMM1 myeloma cells; Homo sapiens, KMM-1, KMM1, 48 hours, 1 μM, 5 μM and 10 μM): < 30%
inhibition at 25 µM (KMM1 myeloma cells; Homo sapiens, KMM-1, KMM1, 48 hours, 25 μM): 38.7 ± 4%
inhibition at 50 µM (KMM1 myeloma cells; Homo sapiens, KMM-1, KMM1, 48 hours, 50 μM): 59.6 ± 2%
inhibition at 5 µM ([1]; Homo sapiens, OCI-Ly3, 5 μM): 7.3 ± 1%
inhibition at 10 µM ([1]; Homo sapiens, OCI-Ly3, 10 μM): 25.6 ± 5%
OCT2 protein levels (OCT2): downregulated
Bob-1 protein levels (Bob-1): downregulated
Normal Bone Marrow Mononuclear Cell Viability (%) Average ([2]; 1 μM): 99.3%
Normal Bone Marrow Mononuclear Cell Viability (%) Average ([2]; 10 μM): 103.4%
Normal Bone Marrow Mononuclear Cell Viability (%) Average ([2]; 25 μM): 117.7%
Normal Bone Marrow Mononuclear Cell Viability (%) Average ([2]; 50 μM): 122.6%
inhibition of cell growth of normal human bone marrow cells (in words) [2]: neither GL8 nor CAPE at the following concentrations inhibited
decrease of IRF4 protein expression level (IRF4 [3]; KMM1, 25 μM, 48 hours): 26%
viability at 5 µM [4, 10]: 51.8%
viability at 25 µM [4, 10]: 36%

O=C(/C=C/c1ccc(O)c(O)c1)NCCc1ccccc1 [D19]
effect on cyclin D3 levels (Cyclin D3): did not have any effect

O=C(/C=C/c1ccc(O)c(O)c1)OCCCc1ccccc1 [GL8]
myeloma cell growth inhibition (in words) (KMM1 myeloma cells; KMM1): significant myeloma cell growth inhibition
myeloma cell growth inhibition (KMM1 myeloma cells; KMM1, 48 hours, 25 μM): 58.3±13%
myeloma cell growth inhibition (KMM1 myeloma cells; KMM1, 48 hours, 50 μM): 80±5%
lymphoma cell growth inhibition ([1]; OCI-Ly3, 5 μM): 49.9±2.9%
lymphoma cell growth inhibition ([1]; OCI-Ly3, 10 μM): 62.3±2%
increase in cleaved caspase-3 in comparison with 25 μM CAPE (cleaved caspase-3): 2.9 fold
cyclin D3 protein levels in comparison with CAPE (Cyclin D3): decreased cyclin D3 protein levels dramatically
effect on cyclin D3 levels (Cyclin D3): decrease cyclin D3 levels in a dose-dependent manner
OCT2 protein levels (OCT2): downregulated
Bob-1 protein levels (Bob-1): downregulated
levels of Ikaros in comparison with 50 μM CAPE (Ikaros [5]): significantly decreased
levels of IRF4 in comparison with 50 μM CAPE (IRF4 [6]; 50 μM): significantly decreased
levels of Ikaros in comparison with 50 μM CAPE (Ikaros [7]): significantly decreased
Normal Bone Marrow Mononuclear Cell Viability (%) Average ([2]; 1 μM): 110.0%
Normal Bone Marrow Mononuclear Cell Viability (%) Average ([2]; 10 μM): 109.2%
Normal Bone Marrow Mononuclear Cell Viability (%) Average ([2]; 25 μM): 110.3%
Normal Bone Marrow Mononuclear Cell Viability (%) Average ([2]; 50 μM): 101.9%
inhibition of cell growth of normal human bone marrow cells (in words) [2]: neither GL8 nor CAPE at the following concentrations inhibited
levels of IRF4 in comparison with 50 μM CAPE (IRF4 [3]; KMM1 (lenalidomide resistant), 50 μM): significantly decreased
decrease of IRF4 protein expression level (IRF4 [3]; KMM1, 25 μM, 48 hours): 62%

Nc1cccc2c1CN(C1CCC(=O)NC1=O)C2=O (stereo not shown) [Lenalidomide]
cell growth inhibition effect (sensitivity in words) (KMM1 myeloma cells; KMM1): insensitive
cell growth inhibition effect (sensitivity in words) ([1]; OCI-Ly3): insensitive
effect on IRF4 protein level (IRF4 [6]; 10 μM, 25 μM and 50 μM): did not alter
cell growth inhibition effect (sensitivity in words) [8]: moderately sensitive
cell growth inhibition effect (sensitivity in words) [9]: sensitive
effect on IRF4 protein level (IRF4 [3]; KMM1 (lenalidomide resistant), 10 μM, 25 μM and 50 μM): Neither the clinically relevant concentration of 10 μM lenalidomide (Greenberg et al., 2013) nor higher concentrations of lenalidomide (25 μM and 50 μM) tested had any effect
viability at 0.0001 µM [4, 11]: 99%
viability at 0.0005 µM [4, 11]: 97%
viability at 0.001 µM [4, 11]: 97%
viability at 0.005 µM [4, 11]: 96%
viability at 0.01 µM [4, 11]: 97%
viability at 0.1 µM [4, 11]: 85%
viability at 1 µM [4, 11]: 80%
viability at 10 µM [4, 11]: 80%
viability at 100 µM [4, 11]: 78%

O=C(/C=C/c1ccc(O)c(O)c1)OCCC1CCCCC1 [MT30]
myeloma cell growth inhibition (in words) (KMM1 myeloma cells; KMM1): significant myeloma cell growth inhibition
increase in cleaved caspase-3 in comparison with 25 μM CAPE (cleaved caspase-3): 3.2 fold
cyclin D3 protein levels in comparison with CAPE (Cyclin D3): decreased cyclin D3 protein levels dramatically
OCT2 protein levels (OCT2): downregulated
Bob-1 protein levels (Bob-1): downregulated
IRF4 protein expression (in words) (IRF4 [3]; KMM1, 25 μM, 48 hours): significantly down regulated
